PMC9977316, “The kidney drug transporter OAT1 regulates gut microbiome–dependent host metabolism” (JCI Insight, 2023)
Entries after “also recorded” stand apart in the source; their conditions may differ. Counter-ions that a name gives are not always drawn.

Key:
OAT1 [1] = molecular target: T1, OAT1 (Mus musculus, UniProt Q8VC69); test: Serum metabolomics, effect of genotype (Oat1-KO versus WT), 2-way ANOVA; format: in vivo; conditions: for effect of genotype on serum level: statistical analysis of the serum metabolome; for interaction between genotype and treatment on serum level: 2-way ANOVA, loss of Oat1 x microbiome depletion
T1 construct: from tissue; host or cells: living mice (kidney proximal tubule); Oat1-KO versus WT
T1 sequence (Q8VC69 1-545): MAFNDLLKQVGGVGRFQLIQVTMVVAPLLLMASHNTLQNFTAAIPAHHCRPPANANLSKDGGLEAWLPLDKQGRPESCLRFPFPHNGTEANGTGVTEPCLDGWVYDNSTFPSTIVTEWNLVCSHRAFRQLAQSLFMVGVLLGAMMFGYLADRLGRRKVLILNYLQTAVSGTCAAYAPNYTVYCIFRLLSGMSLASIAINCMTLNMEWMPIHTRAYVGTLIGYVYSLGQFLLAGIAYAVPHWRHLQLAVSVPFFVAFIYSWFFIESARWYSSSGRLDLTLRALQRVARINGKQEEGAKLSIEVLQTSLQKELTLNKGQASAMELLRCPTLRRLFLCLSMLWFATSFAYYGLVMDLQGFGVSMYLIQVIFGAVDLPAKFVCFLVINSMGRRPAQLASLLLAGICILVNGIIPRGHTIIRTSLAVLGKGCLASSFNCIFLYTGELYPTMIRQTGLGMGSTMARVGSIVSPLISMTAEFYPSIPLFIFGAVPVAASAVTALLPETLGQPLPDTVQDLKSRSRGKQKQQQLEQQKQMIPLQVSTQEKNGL
Description: Adult male KO and WT mice were housed in a 12-hour light-dark cycle and allowed ad libitum access to food and water. Oat1-KO mice were generated and maintained as previously described ([49]). Feces were collected from mice weekly in sterile 2 mL centrifuge tubes, flash frozen, and stored at –80°C. Animals were sacrificed by CO2 inhalation, and blood samples were extracted from mice by cardiac puncture. Serum was extracted, and samples were flash frozen and stored at –80°C until further analysis.
Serum samples were shipped on dry ice to Metabolon Inc. for preparation and metabolomics. Per Metabolon Inc., proteins were removed from the serum and 5 fractions were generated for different mass spectrometry methods. […] Peaks were identified and associated with defined compounds based on retention time, mass/charge ratio, and MS/MS spectral data. Quantification of peaks was performed using AUC.
Scaled intensity for each metabolite was normalized to volume, and missing values were imputed with the lowest value for the compound. For all fold-change calculations, scaled intensities were averaged and compared with each other. Statistical comparisons were performed using the Python module, statsmodels (https://www.statsmodels.org/stable/index.html) and were made between groups by 2-way ANOVA following log transformation and FDR correction, with P < 0.05 being considered significant. Enrichment for each superpathway and subpathway was calculated using the number of total metabolites measured and the number of metabolites in each respective superpathway and subpathway, as previously described ([16]).

OAT1 [2] = conditions: cited from earlier work; for Decreased in urine of probenecid-treated humans / Elevated in plasma of probenecid-treated humans: before vs 5 hours after oral probenecid
OAT1 [3] = molecular target: T2, OAT1 (Homo sapiens, UniProt Q4U2R8); test: In vitro OAT1 transport assay (inhibition of 6-carboxyfluorescein uptake); format: cell-based; design: host or cells: HEK (HEK293) cells stably overexpressing human OAT1; conditions: for In vitro cell–based transport assay: this work
T2 sequence (Q4U2R8 1-563): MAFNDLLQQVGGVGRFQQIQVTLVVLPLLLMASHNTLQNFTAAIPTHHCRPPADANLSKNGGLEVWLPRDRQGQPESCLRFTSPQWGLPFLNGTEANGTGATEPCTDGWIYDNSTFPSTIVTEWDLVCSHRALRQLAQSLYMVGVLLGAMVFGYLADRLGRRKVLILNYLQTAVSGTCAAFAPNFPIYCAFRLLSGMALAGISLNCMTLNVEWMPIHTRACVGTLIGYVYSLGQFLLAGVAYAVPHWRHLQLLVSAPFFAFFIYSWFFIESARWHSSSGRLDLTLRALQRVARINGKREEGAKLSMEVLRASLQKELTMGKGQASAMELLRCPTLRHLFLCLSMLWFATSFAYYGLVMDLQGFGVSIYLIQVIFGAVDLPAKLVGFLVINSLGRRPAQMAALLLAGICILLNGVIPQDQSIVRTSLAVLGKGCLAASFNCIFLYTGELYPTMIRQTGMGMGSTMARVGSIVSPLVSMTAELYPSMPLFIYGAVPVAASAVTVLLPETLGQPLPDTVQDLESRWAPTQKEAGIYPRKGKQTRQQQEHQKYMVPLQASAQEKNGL
Description: Human embryonic kidney (HEK) cells stably overexpressing human OAT1 (SOLVO Biotechnology) were used for in vitro inhibition assays. […] Prior to functional assays, cells were plated in 96-well plates and grown for 24 hours or until confluent in media without blasticidin. Metabolites were added at either 1 mM or 2 mM, and serial dilution was performed down all columns. A fixed concentration of 10 μM 6-carboxyfluorescein (6-CF) was introduced to each well for 10 minutes. Cells were rinsed 3 times in ice-cold PBS, and the fluorescence was measured using a fluorescence plate reader. IC50 values were calculated using GraphPad Prism 9. Controls were carried out using probenecid, an established inhibitor of OAT1 function.

[4] = direction of serum change by loss of Oat1 and by microbiome depletion

Compound	Status (OAT1 [1]; [4])	Decreased in urine of probenecid-treated humans (OAT1 [2])	other results
O=C(O)Cc1c[nH]c2ccc(O)cc12 [5-Hydroxyindoleacetate]	–	–	effect of genotype on serum level (OAT1 [1]): not impacted by either variable
CCc1ccc(OS(=O)(=O)O)cc1 [4-ethylphenyl sulfate]	Group 2	✓	urine level in probenecid treated humans (OAT1 [2]): significantly decreased in the urine
CC(C)C(O)(CC(=O)O)C(=O)O (centres unmarked) [2-isopropylmalate]	Group 4	–	Elevated in plasma of probenecid-treated humans (OAT1 [2]): ✓
O=C1Cc2ccccc2N1 [indolin-2-one]	Group 2	✓	Elevated in plasma of probenecid-treated humans (OAT1 [2]): ✓
O=C(O)/C=C/c1ccccc1 [cinnamate]	–	–	Status (OAT1 [1]; mouse, in vivo): Group 4
Cn1cncc1CC(O)C(=O)O (centres unmarked) [1-methyl-5-imidazolelactate]	Group 1	–	–
O=C(O)CNC(=O)Cc1ccccc1 [phenylacetylglycine]	Group 2	–	Elevated in plasma of probenecid-treated humans (OAT1 [2]): ✓
docosahexaenoylcarnitine (C22:6)*	–	–	interaction between genotype and treatment on serum level (OAT1 [1]): impacted by the interaction between the variables
O=C(O)/C=C/c1ccc(O)cc1 [4-hydroxycinnamate]	–	–	effect of genotype on serum level (OAT1 [1]): not impacted by either variable; IC50 (OAT1 [3]): 13.3 µM; In vitro cell–based transport assay (OAT1 [3]): × (this work)
CC(=O)N[C@@H](CCCCN(C)C)C(=O)O [N2-acetyl,N6,N6-dimethyllysine]	Group 3	✓	–
C[C@@H](C(=O)O)N(C)C [N,N-dimethylalanine]	Group 1	–	–
O=C(O)Cc1ccccc1O [2-hydroxyphenylacetate]	–	–	effect of genotype on serum level (OAT1 [1]): affected by genotype; IC50 (OAT1 [3]): 39.2 µM; In vitro cell–based transport assay (OAT1 [3]): × (this work)
O=C1O[C@H]([C@@H](O)CO)C(OS(=O)(=O)O)=C1O [ascorbic acid 3-sulfate*]	Group 1	–	–
C[C@H](CCC(=O)O)[C@H]1CC[C@H]2[C@@H]3CC[C@@H]4C[C@H](O)CC[C@]4(C)[C@H]3C[C@H](O)[C@]12C [deoxycholate]	Group 2	–	interaction between genotype and treatment on serum level (OAT1 [1]): impacted by the interaction between the variables; also recorded: affected by genotype-treatment interaction; IC50 (OAT1 [3]): 19.2 µM; In vitro cell–based transport assay (OAT1 [3]): × (this work)
COc1ccc(OS(=O)(=O)O)cc1 [4-methoxyphenol sulfate]	Group 2	✓	Elevated in plasma of probenecid-treated humans (OAT1 [2]): ✓; plasma level in probenecid treated humans (OAT1 [2]): elevated in the plasma; urine level in probenecid treated humans (OAT1 [2]): decreased in the urine
O=S(=O)(O)Oc1ccccc1O [catechol sulfate]	Group 2	✓	–
CC(=O)NCCCC[C@H](NC(C)=O)C(=O)O [N2,N6-diacetyllysine]	Group 3	✓	–
CC(CCC[C@@H](C)[C@H]1CC[C@H]2[C@@H]3[C@H](O)CC4=CC(=O)CC[C@]4(C)[C@H]3CC[C@]12C)C(=O)O (some centres unmarked) [7-HOCA]	Group 3	–	–
Cc1ccc(OS(=O)(=O)O)cc1 [p-cresol sulfate]	Group 2	✓	Elevated in plasma of probenecid-treated humans (OAT1 [2]): ✓; plasma level in probenecid treated humans (OAT1 [2]): significantly elevated in the plasma
CN1CCC[C@H]1C(=O)O [N-methylproline]	Group 4	–	–
O=S(=O)(O)Oc1c[nH]c2ccccc12 [3-indoxyl sulfate]	–	✓	Elevated in plasma of probenecid-treated humans (OAT1 [2]): ✓; plasma level in probenecid treated humans (OAT1 [2]): significantly elevated in the plasma
O=S(=O)(O)Oc1ccc(O)cc1 [hydroquinone sulfate]	Group 2	–	Elevated in plasma of probenecid-treated humans (OAT1 [2]): ✓
Cn1cncc1C[C@H](N)C(=O)O [3-methylhistidine]	Group 2	–	–
O=C(O)CCC(=O)NCCS(=O)(=O)O [succinoyltaurine]	Group 1	✓	–
O=C(O)CCc1c[nH]c2ccccc12 [indolepropionate]	–	–	IC50 (OAT1 [3]): 39.2 µM; In vitro cell–based transport assay (OAT1 [3]): × (this work)
3-methoxycatechol sulfate (2)	Group 2	✓	–
COc1cc(CC(=O)O)ccc1OS(=O)(=O)O [homovanillate sulfate]	Group 2	✓	–

Continued, in another order:

Status (OAT1 [1]; [4])	Compound	Decreased in urine of probenecid-treated humans (OAT1 [2])	other results
Group 2	C=CCc1ccc(OS(=O)(=O)O)cc1 [4-allylphenol sulfate]	✓	–
Group 2	Cc1ccc(OS(=O)(=O)O)c(N)c1 [2-amino-p-cresol sulfate]	–	interaction between genotype and treatment on serum level (OAT1 [1]): impacted by the interaction between the variables
Group 4	O=C(O)CCc1ccccc1.O=C(O)CCc1ccccc1 [3-phenylpropionate (hydrocinnamate)]	–	–
Group 2	O=C(O)c1c(O)cccc1O [2,6-dihydroxybenzoic acid]	✓	Elevated in plasma of probenecid-treated humans (OAT1 [2]): ✓
Group 2	O=C(O)Cc1cccc2cc[nH]c12 [1H-indole-7-acetic acid]	–	–
Group 1	OC[C@H]1OC[C@H](O)[C@@H](O)[C@@H]1O [1,5-anhydroglucitol (1,5-AG)]	–	–
Group 1	CS(=O)(=O)CC[C@H](N)C(=O)O [methionine sulfone]	✓	–
Group 2	C[N+](C)(C)CCCCC(=O)[O-] [N,N,N-trimethyl-5-aminovalerate]	–	–
Group 4	O=C(O)CCCC(=O)C(=O)O [2-oxoadipate]	✓	–
Group 3	[H]/N=C(/N)NCC(=O)O [guanidinoacetate]	–	–
Group 2	O=C(O)CCc1ccc(O)cc1 [3-(4-hydroxyphenyl)propionate]	–	–
Group 3	CC(=O)N[C@@H](CCCCNC(N)=O)C(=O)O [N-acetylhomocitrulline]	✓	–
Group 4	CC(=O)N[C@@H](CO)C(=O)O [N-acetylserine]	–	–
